Experimental data: PubChem BioAssay (NCI)
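Dose response: 5 concentrations. Exposure: 48 h. Format: 96-well plates. Endpoint: linear interpolation; highest concentration if not reached. The concentration for full growth arrest is given as TGI.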

Tests used:
Experiment in all cases: NCI anticancer screen, dose series, 48 h
[1] = system: HCT-15 colon
[2] = system: NCI/ADR-RES ovarian
[3] = system: HL-60(TB) leukemia
[4] = system: SF-295 CNS
[5] = system: K-562 leukemia
[6] = system: BT-549 breast
[7] = system: SW-620 colon
[8] = system: OVCAR-5 ovarian
[9] = system: HCT-116 colon
[10] = system: 786-0 renal
[11] = system: NCI-H226 lung
[12] = system: SNB-19 CNS
[13] = system: SF-268 CNS
[14] = system: M14 melanoma
[15] = system: A549 NSCLC
[16] = system: MALME-3M melanoma
[17] = system: CAKI-1 renal
[18] = system: XF 498 CNS
[19] = system: ACHN renal
[20] = system: SN12C renal
[21] = system: NCI-H522 lung
[22] = system: SR leukemia
[23] = system: MDA-N
[24] = system: T-47D breast
[25] = system: CCRF-CEM leukemia
[26] = system: SF-539 CNS
[27] = system: UACC-257 melanoma
[28] = system: HT29 colon
[29] = system: A498 renal
[30] = system: OVCAR-8 ovarian
[31] = system: KM20L2 colon
[32] = system: PC-3 prostate
[33] = system: OVCAR-4 ovarian
[34] = system: SK-MEL-28 melanoma
[35] = system: LOX IMVI melanoma
[36] = system: MDA-MB-231 breast
[37] = system: MCF7 breast
[38] = system: RPMI-8226 leukemia
[39] = system: HCC-2998 colon
[40] = system: SK-MEL-5 melanoma
[41] = system: DU-145 prostate
[42] = system: SK-MEL-2 melanoma
[43] = system: HOP-92 NSCLC
[44] = system: KM12 colon
[45] = system: LXFL 529 NSCLC
[46] = system: DLD-1 colon
[47] = system: SNB-78 CNS
[48] = system: NCI-H460 lung
[49] = system: M19-MEL melanoma
[50] = system: EKVX NSCLC
[51] = system: COLO 205 colon
[52] = system: U251 CNS
[53] = system: TK-10 renal
[54] = system: SK-OV-3 ovarian
[55] = system: MOLT-4 leukemia
[56] = system: UACC-62 melanoma
[57] = system: SNB-75 CNS
[58] = system: NCI-H23 lung
[59] = system: HOP-62 NSCLC
[60] = system: OVCAR-3 ovarian
[61] = system: HOP-18 NSCLC
[62] = system: UO-31 renal
[63] = system: IGROV1 ovarian

Work on `CC1=NN(C(=O)c2ccccc2O)C(=O)/C1=C/c1cccc(O)c1` yielded a TGI [1] greater than 100 µM, a TGI [2] greater than 100 µM and a TGI [3] greater than 100 µM. It also gave a TGI [4] greater than 100 µM, a TGI [5] greater than 100 µM and a TGI [6] greater than 100 µM. The TGI [7] was greater than 100 µM, the TGI [8] was greater than 100 µM and the TGI [9] was greater than 100 µM. For the same compound, the TGI [10] was greater than 100 µM, the TGI [11] was 83.2 µM and the TGI [12] was greater than 100 µM. The TGI [13] was greater than 100 µM, the TGI [14] was 37 µM and the TGI [15] was greater than 100 µM. For the same compound, the TGI [16] was greater than 100 µM, the TGI [17] was greater than 100 µM and the TGI [18] was greater than 100 µM. The TGI [19] was greater than 100 µM, the TGI [20] was greater than 100 µM and the TGI [21] was greater than 30.7 µM. The TGI [22] was greater than 100 µM, the TGI [23] was greater than 100 µM and the TGI [24] was greater than 100 µM. It also gave a TGI [25] greater than 100 µM, a TGI [26] of 4.29 µM and a TGI [27] greater than 100 µM. The TGI [28] was greater than 100 µM, the TGI [29] was 0.323 µM and the TGI [30] was greater than 100 µM. The TGI [31] was greater than 100 µM, the TGI [32] was greater than 100 µM and the TGI [33] was greater than 100 µM. The TGI [34] was greater than 100 µM, the TGI [35] was greater than 80.5 µM and the TGI [36] was greater than 100 µM. The TGI [37] was greater than 100 µM, the TGI [38] was greater than 100 µM and the TGI [39] was greater than 100 µM. It also gave a TGI [40] greater than 100 µM, a TGI [41] greater than 100 µM and a TGI [42] greater than 48.4 µM. For the same compound, the TGI [43] was greater than 100 µM, the TGI [44] was greater than 100 µM and the TGI [45] was greater than 100 µM. For the same compound, the TGI [46] was greater than 100 µM, the TGI [47] was greater than 100 µM and the TGI [48] was greater than 100 µM. The TGI [49] was greater than 100 µM, the TGI [50] was greater than 100 µM and the TGI [51] was greater than 86.9 µM. The TGI [52] was greater than 100 µM, the TGI [53] was greater than 100 µM and the TGI [54] was greater than 100 µM. It also gave a TGI [55] greater than 100 µM, a TGI [56] of 2.74 µM and a TGI [57] greater than 100 µM.

For `COc1ccc(/C=N/NC(=O)c2sc(=S)n(-c3ccccc3)c2N)cc1`, the TGI [3] was greater than 100 µM, the TGI [4] was greater than 100 µM and the TGI [5] was greater than 100 µM. It also gave a TGI [58] greater than 100 µM, a TGI [7] greater than 100 µM and a TGI [8] greater than 100 µM. For the same compound, the TGI [9] was greater than 100 µM, the TGI [11] was greater than 100 µM and the TGI [12] was greater than 100 µM. For the same compound, the TGI [13] was greater than 100 µM, the TGI [59] was greater than 100 µM and the TGI [15] was greater than 100 µM. For the same compound, the TGI [19] was greater than 100 µM, the TGI [21] was greater than 100 µM and the TGI [22] was greater than 100 µM. It also gave a TGI [25] greater than 100 µM, a TGI [60] greater than 100 µM and a TGI [26] greater than 100 µM. The TGI [27] was greater than 100 µM, the TGI [28] was greater than 100 µM and the TGI [30] was greater than 100 µM. For the same compound, the TGI [34] was greater than 100 µM, the TGI [39] was greater than 100 µM and the TGI [40] was greater than 100 µM. It also gave a TGI [61] greater than 100 µM, a TGI [43] of 79.5 µM and a TGI [44] greater than 100 µM. It also gave a TGI [45] greater than 100 µM, a TGI [46] greater than 100 µM and a TGI [48] greater than 100 µM. For the same compound, the TGI [49] was greater than 100 µM, the TGI [51] was greater than 100 µM and the TGI [62] was greater than 100 µM. The TGI [52] was greater than 100 µM, the TGI [53] was greater than 100 µM and the TGI [54] was greater than 100 µM. For the same compound, the TGI [55] was greater than 100 µM, the TGI [56] was greater than 100 µM and the TGI [63] was greater than 100 µM. It also gave a TGI [57] of 8.67 µM.
